What was measured:
[1] = biological target: human full length PDE3A (Homo sapiens (Human), UniProt Q14432); experiment: Assay 4 PDE3A enzyme inhibition (3H-cAMP SPA); assay type: biochemical; conditions: Sf9 cell extract
How it was run: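 Hydrolysis of [8-3H]cAMP by Sf9-expressed full-length PDE3A was measured by scintillation proximity, with enzyme diluted to keep kinetics linear and substrate consumption below 70%. Incubation ran 60 min at room temperature at pH 7.5.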

[2] = biological target: human full length PDE3B (Homo sapiens (Human), UniProt Q13370); experiment: Assay 5 PDE3B enzyme inhibition (3H-cAMP SPA); assay type: biochemical; conditions: Sf9 cell extract
Chain of human full length PDE3B (Q13370 whole entry): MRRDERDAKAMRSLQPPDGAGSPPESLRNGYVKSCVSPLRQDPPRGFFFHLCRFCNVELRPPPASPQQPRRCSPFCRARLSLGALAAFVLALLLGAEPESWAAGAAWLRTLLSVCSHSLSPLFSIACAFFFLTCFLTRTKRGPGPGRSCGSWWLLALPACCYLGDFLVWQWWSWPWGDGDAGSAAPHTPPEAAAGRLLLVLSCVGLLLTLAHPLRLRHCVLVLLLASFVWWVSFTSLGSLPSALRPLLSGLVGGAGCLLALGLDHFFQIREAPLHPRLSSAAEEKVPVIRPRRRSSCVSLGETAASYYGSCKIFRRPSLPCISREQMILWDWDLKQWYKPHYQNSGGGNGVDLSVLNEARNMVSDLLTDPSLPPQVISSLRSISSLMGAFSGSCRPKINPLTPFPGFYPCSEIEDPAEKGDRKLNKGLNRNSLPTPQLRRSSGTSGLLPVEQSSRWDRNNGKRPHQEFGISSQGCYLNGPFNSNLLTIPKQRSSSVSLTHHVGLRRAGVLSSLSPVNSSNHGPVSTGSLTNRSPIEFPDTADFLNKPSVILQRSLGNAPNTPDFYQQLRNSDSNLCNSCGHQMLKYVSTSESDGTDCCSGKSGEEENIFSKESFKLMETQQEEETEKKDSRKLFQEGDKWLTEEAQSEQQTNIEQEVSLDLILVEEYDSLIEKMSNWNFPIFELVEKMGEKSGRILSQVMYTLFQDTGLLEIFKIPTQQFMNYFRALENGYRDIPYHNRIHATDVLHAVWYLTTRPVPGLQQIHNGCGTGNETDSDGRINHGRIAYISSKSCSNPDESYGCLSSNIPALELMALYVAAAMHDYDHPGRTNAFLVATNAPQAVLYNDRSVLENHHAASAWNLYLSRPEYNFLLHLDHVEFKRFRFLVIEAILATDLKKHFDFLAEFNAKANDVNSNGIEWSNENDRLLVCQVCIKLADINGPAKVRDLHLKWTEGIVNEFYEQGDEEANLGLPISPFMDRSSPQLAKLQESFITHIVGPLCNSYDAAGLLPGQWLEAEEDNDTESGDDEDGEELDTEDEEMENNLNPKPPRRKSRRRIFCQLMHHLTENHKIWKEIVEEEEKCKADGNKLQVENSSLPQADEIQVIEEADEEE
How it was run: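 Hydrolysis of tritiated cAMP by Sf9-expressed full-length human PDE3B proceeded 60 min at room temperature in Tris buffer pH 7.5 containing Mg2+, EDTA and BSA, with enzyme dilution keeping substrate consumption below 70%. IC50 derived from percent activity versus log compound concentration.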

[3] = tested on: SK-MEL-3 cells; experiment: Assay 1 cell proliferation measurement (CTG, 72 h), SK-MEL-3; assay type: cell-based, human; conditions: Homo sapiens, SK-MEL3; Assay 1, 72 h, Cell Titer Glo; read-out: SK-MEL-3 IC50 [nM] (melanoma)
How it was run: (§1)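 CTG luminescence readout after 72 h compound exposure at 37 °C; 10-point 2.5-fold dilutions from 100 nM max final; DMSO 0.3% vehicle. IC50 from 4-parameter fit, normalised to 0 h plate (max inhibition) and DMSO (min inhibition).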

[4] = tested on: HeLa cells; experiment: Assay 1 cell proliferation measurement (CTG, 72 h), HeLa; assay type: cell-based, human; conditions: Homo sapiens, HeLa; Assay 1, 72 h, Cell Titer Glo; read-out: HeLa IC50 [nM] (Cervical cancer)
How it was run: as §1

Chain of human full length PDE3A (Q14432 whole entry): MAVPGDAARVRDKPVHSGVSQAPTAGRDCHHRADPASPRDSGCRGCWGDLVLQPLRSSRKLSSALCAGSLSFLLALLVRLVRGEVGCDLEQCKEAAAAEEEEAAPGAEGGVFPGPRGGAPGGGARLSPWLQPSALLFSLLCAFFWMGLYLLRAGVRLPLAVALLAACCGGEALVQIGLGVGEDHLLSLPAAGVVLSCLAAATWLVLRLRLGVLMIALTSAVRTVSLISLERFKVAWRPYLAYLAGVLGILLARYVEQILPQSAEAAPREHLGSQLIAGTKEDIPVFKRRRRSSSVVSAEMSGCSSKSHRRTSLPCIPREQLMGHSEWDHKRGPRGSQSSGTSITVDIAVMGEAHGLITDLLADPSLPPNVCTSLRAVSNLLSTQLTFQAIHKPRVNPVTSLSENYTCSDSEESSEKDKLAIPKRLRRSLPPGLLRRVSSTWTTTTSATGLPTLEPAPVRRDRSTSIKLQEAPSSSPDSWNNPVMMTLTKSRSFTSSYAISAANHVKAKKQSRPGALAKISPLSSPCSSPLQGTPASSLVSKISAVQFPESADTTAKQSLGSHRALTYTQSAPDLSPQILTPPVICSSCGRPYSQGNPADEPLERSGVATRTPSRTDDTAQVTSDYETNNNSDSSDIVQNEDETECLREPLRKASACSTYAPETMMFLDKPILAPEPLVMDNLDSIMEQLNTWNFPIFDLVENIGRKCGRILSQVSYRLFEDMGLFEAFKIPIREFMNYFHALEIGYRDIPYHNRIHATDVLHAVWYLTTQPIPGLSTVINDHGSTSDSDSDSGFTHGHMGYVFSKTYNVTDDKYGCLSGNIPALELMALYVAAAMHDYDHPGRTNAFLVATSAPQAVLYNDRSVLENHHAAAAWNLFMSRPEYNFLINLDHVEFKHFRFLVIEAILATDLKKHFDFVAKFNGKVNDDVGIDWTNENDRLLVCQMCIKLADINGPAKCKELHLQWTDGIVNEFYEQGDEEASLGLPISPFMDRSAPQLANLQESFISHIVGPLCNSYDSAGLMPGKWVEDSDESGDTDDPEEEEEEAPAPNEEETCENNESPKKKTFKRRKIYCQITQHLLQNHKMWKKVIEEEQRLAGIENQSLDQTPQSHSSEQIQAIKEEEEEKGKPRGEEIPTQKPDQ

| Structure (SMILES) | IC50 [1] [nM] | IC50 [2] [nM] | IC50 [3] [nM] | IC50 [4] [nM] |
| --- | --- | --- | --- | --- |
| O=C1NN=C(c2ccc(-c3ccccc3F)c(F)c2)CO1 [Example 114, 5-(2,2′-Difluoro[1,1′-biphenyl]-4-yl)-3,6-dihydro-2H-1,3,4-oxadiazin-2-one] | 92 | 100 | 7 | 4 |
| O=C1NN=C(c2ccc(-c3c(F)cccc3F)c(F)c2)CO1 [Example 115, 5-(2,2′,6′-Trifluoro[1,1′-biphenyl]-4-yl)-3,6-dihydro-2H-1,3,4-oxadiazin-2-one] | 92 | 100 | 7 | 4 |
| COc1ccccc1-c1ccc(C2=NNC(=O)OC2)cc1F [Example 116, 5-(2-Fluoro-2′-methoxy[1,1′-biphenyl]-4-yl)-3,6-dihydro-2H-1,3,4-oxadiazin-2-one] | 79 | 76 | 35 | 16 |
| O=C1NN=C(c2ccc(-c3cccc(F)c3)c(F)c2)CO1 [Example 117, 5-(2,3′-Difluoro[1,1′-biphenyl]-4-yl)-3,6-dihydro-2H-1,3,4-oxadiazin-2-one] | 77 | 95 | 9 | 5 |
| Cc1ccncc1-c1ccc(C2=NNC(=O)OC2)cc1F [Example 118, 5-[3-Fluoro-4-(4-methylpyridin-3-yl)phenyl]-3,6-dihydro-2H-1,3,4-oxadiazin-2-one] | 60 | 64 | 6 | 3 |
| C[C@@H]1OC(=O)NN=C1c1ccc(N2CCOCC2)c(C(F)(F)F)c1 [Example 120, (6S)-6-Methyl-5-[4-(morpholin-4-yl)-3-(trifluoromethyl)phenyl]-3,6-dihydro-2H-1,3,4-oxadiazin-2-one] | 6 | 4 | 1 | 0.3 |
| Cn1cc(-c2ccc(C3=NNC(=O)OC3)cc2C(F)(F)F)c(C(F)(F)F)n1 [Example 127, 5-{4-[1-Methyl-3-(trifluoromethyl)-1H-pyrazol-4-yl]-3-(trifluoromethyl)phenyl}-3,6-dihydro-2H-1,3,4-oxadiazin-2-one] | 78 | 31 | > 100 | > 100 |
| Cc1n[nH]c(C)c1-c1ccc(C2=NNC(=O)OC2)cc1C(F)(F)F [Example 128, 5-[4-(3,5-Dimethyl-1H-pyrazol-4-yl)-3-(trifluoromethyl)phenyl]-3,6-dihydro-2H-1,3,4-oxadiazin-2-one] | 280 | 270 | > 100 | > 100 |
| Cc1noc(C)c1-c1ccc(C2=NNC(=O)OC2)cc1C(F)(F)F [Example 129, 5-[4-(3,5-Dimethyl-1,2-oxazol-4-yl)-3-(trifluoromethyl)phenyl]-3,6-dihydro-2H-1,3,4-oxadiazin-2-one] | 970 | 770 | > 100 | > 100 |
| O=C1NN=C(c2ccc(-c3c[nH]nc3C(F)(F)F)c(C(F)(F)F)c2)CO1 [Example 130, 5-{3-(Trifluoromethyl)-4-[3-(trifluoromethyl)-1H-pyrazol-4-yl]phenyl}-3,6-dihydro-2H-1,3,4-oxadiazin-2-one] | 200 | 160 | 25600 | > 100 |
| CCn1cc(-c2ccc(C3=NNC(=O)OC3)cc2C(F)(F)F)cn1 [Example 131, 5-[4-(1-Ethyl-1H-pyrazol-4-yl)-3-(trifluoromethyl)phenyl]-3,6-dihydro-2H-1,3,4-oxadiazin-2-one] | 32 | 42 | 6 | 2 |
| CN(c1ccc(C2=NNC(=O)OC2)cc1C(F)(F)F)C1CCCC1 [Example 132, 5-{4-[Cyclopentyl(methyl)amino]-3-(trifluoromethyl)phenyl}-3,6-dihydro-2H-1,3,4-oxadiazin-2-one] | 260 | 450 | 38 | 16 |
| CN1CC=C(c2ccc(C3=NNC(=O)OC3)cc2C(F)(F)F)CC1 [Example 133, 5-[4-(1-Methyl-1,2,3,6-tetrahydropyridin-4-yl)-3-(trifluoromethyl)phenyl]-3,6-dihydro-2H-1,3,4-oxadiazin-2-one] | > 1000 | > 1000 | 51 | 32 |
| CCCCN(C)c1ccc(C2=NNC(=O)OC2)cc1C(F)(F)F [Example 134, 5-{4-[Butyl(methyl)amino]-3-(trifluoromethyl)phenyl}-3,6-dihydro-2H-1,3,4-oxadiazin-2-one] | 270 | 580 | 26 | 12 |
| O=C1NN=C(c2ccc(NC3CCCC3)c(C(F)(F)F)c2)CO1 [Example 136, 5-[4-(Cyclopentylamino)-3-(trifluoromethyl)phenyl]-3,6-dihydro-2H-1,3,4-oxadiazin-2-one] | 32 | 27 | 1 | 0.3 |
| CC(C)Nc1ccc(C2=NNC(=O)OC2)cc1C(F)(F)F [Example 137, 5-[4-(Propan-2-ylamino)-3-(trifluoromethyl)phenyl]-3,6-dihydro-2H-1,3,4-oxadiazin-2-one] | 52 | 88 | 3 | 1 |
| O=C1NN=C(c2ccc(-c3cccc(F)c3)c(C(F)(F)F)c2)CO1 [Example 138, 5-[3′-Fluoro-2-(trifluoromethyl)biphenyl-4-yl]-3,6-dihydro-2H-1,3,4-oxadiazin-2-one] | 150 | 200 | 19 | 7 |
| O=C1NN=C(c2ccc(C3=CCCOC3)c(C(F)(F)F)c2)CO1 [Example 142, 5-[4-(5,6-dihydro-2H-pyran-3-yl)-3-(trifluoromethyl)phenyl]-3,6-dihydro-2H-1,3,4-oxadiazin-2-one] | 25 | 47 | 4 | 3 |

The remaining lines, values ahead:

| IC50 [1] [nM] | IC50 [2] [nM] | IC50 [3] [nM] | IC50 [4] [nM] | Structure (SMILES) |
| --- | --- | --- | --- | --- |
| 38 | 83 | 30 | 15 | O=C1NN=C(c2ccc(-c3ccc4nccn4c3)c(C(F)(F)F)c2)CO1 [Example 143, 5-[4-(Imidazo[1,2-a]pyridin-6-yl)-3-(trifluoromethyl)phenyl]-3,6-dihydro-2H-1,3,4-oxadiazin-2-one] |
| 55 | 100 | 13 | 6 | CC(C)(C)/C=C/c1ccc(C2=NNC(=O)OC2)cc1C(F)(F)F [Example 144, 5-{4-[3,3-Dimethylbut-1-en-1-yl]-3-(trifluoromethyl)phenyl}-3,6-dihydro-2H-1,3,4-oxadiazin-2-one] |
| 240 | 410 | 47 | 27 | O=C1NN=C(c2ccc(-c3csc(C(F)(F)F)c3)c(C(F)(F)F)c2)CO1 [Example 145, 5-{3-(Trifluoromethyl)-4-[5-(trifluoromethyl)thiophen-3-yl]phenyl}-3,6-dihydro-2H-1,3,4-oxadiazin-2-one] |
| 140 | 310 | 39 | 22 | C=C(C)c1ccc(C2=NNC(=O)OC2)cc1C(F)(F)F [Example 147, 5-[4-(Prop-1-en-2-yl)-3-(trifluoromethyl)phenyl]-3,6-dihydro-2H-1,3,4-oxadiazin-2-one] |
| 190 | 210 | > 100 | 53 | O=C1NN=C(c2ccc(-c3cc4ccccc4s3)c(C(F)(F)F)c2)CO1 [Example 148, 5-[4-(1-Benzothiophen-2-yl)-3-(trifluoromethyl)phenyl]-3,6-dihydro-2H-1,3,4-oxadiazin-2-one] |
| 163 | 132 | 4 | 2 | O=C1NN=C(c2ccc(C3=CCOC3)c(C(F)(F)F)c2)CO1 [Example 149, 5-[4-(2,5-Dihydrofuran-3-yl)-3-(trifluoromethyl)phenyl]-3,6-dihydro-2H-1,3,4-oxadiazin-2-one] |
| 240 | 250 | 5 | 2 | O=C1NN=C(c2ccc(C3=CCCC3)c(C(F)(F)F)c2)CO1 [Example 150, 5-[4-(Cyclopent-1-en-1-yl)-3-(trifluoromethyl)phenyl]-3,6-dihydro-2H-1,3,4-oxadiazin-2-one] |
| 69 | 159 | 5 | 5 | CCn1cnc(-c2ccc(C3=NNC(=O)OC3)cc2C(F)(F)F)c1 [Example 151, 5-[4-(1-Ethyl-1H-imidazol-4-yl)-3-(trifluoromethyl)phenyl]-3,6-dihydro-2H-1,3,4-oxadiazin-2-one] |
| 63 | 76 | 56 | 21 | Cc1cc(-c2ccc(C3=NNC(=O)OC3)cc2C(F)(F)F)sc1C#N [Example 152, 3-Methyl-5-[4-(2-oxo-3,6-dihydro-2H-1,3,4-oxadiazin-5-yl)-2-(trifluoromethyl)phenyl]thiophene-2-carbonitrile] |
| 15 | 26 | 7 | 4 | CC(C)n1cc(-c2ccc(C3=NNC(=O)OC3)cc2C(F)(F)F)cn1 [Example 153, 5-{4-[1-(Propan-2-yl)-1H-pyrazol-4-yl]-3-(trifluoromethyl)phenyl}-3,6-dihydro-2H-1,3,4-oxadiazin-2-one] |

— patent US11427553B2, “Dihydrooxadiazinones” (Bayer Aktiengesellschaft, priority 2017, dated 2022)
